In patent US20150344978A1, “NICOTINE RESISTANT MICROORGANISMS” (priority 2014, published 2015):

What was measured:
[1] = tested on: nicotine resistant yeast strain
Procedure: (§1) In the method, the X-PRESS yeast strain was subjected to a number of selection cycles to generate nicotine resistance. First, the X-PRESS yeast strain was cultured in liquid media (YP medium containing yeast extract (5 g/L); peptone (10 g/L)) to which 1% w/v (10 mg/ml) nicotine was added for 72 hr at 27° C. with shaking 200 rpm. […] After 72 hr, 100 μl of the culture was applied to a 1% w/v nicotine YP agar plate and allowed to grow on the plate at 27° C. for another 72 hr. In the next step, a single colony was inoculated into a 1.5% w/v nicotine YP medium solution and incubated for another 72 hr and the entire process was repeated. This process was repeated multiple times with the concentration of nicotine being increased in increments of 0.5% w/v at each cycle. […] In FIGS. 3A & 3B, the yeast strains were inoculated onto a nicotine-containing culture plate (nicotine 50 mg/ml, yeast extract 5 g/L, peptone 10 g/L and agar 15 g/L) and incubated at 27° C. for 3 days.
To ensure the stability of the nicotine resistance trait, an additional 20 generations of the resistant strain were cultured in the 7.5% w/v nicotine nutrient solution. […] This nicotine resistant Saccharomyces cerevisiae yeast strain was deposited on under the terms of the Budapest Treaty on the International Recognition of the Deposit of Microorganisms for the Purposes of Patent Procedure at the American Type Culture Collection (ATCC) in Manassas, Va., USA and bears the Patent Accession No. ______.

X-PRESS yeast strain = tested on: X-PRESS yeast strain
Procedure: as §1

CN1CCCC1c1cccnc1 (centres unmarked) [nicotine]
less ethanol production expected (yeast; in the presence of 0.5% nicotine): 21%
less sugar consumption by yeast (yeast; nicotine 5 mg/ml added into fermentation solution (FIG. 1)): 21%
growth of nicotine resistant strain in medium [1]: capable of growing
growth of nicotine resistant yeast [1]: still able to grow
growth of nicotine resistant yeast on nicotine-containing culture plate [1]: grew well
effect on growth of X-PRESS yeast in liquid YP medium (X-PRESS yeast strain; 1% w/v (10 mg/ml) nicotine, 72 hr, 27° C., shaking 200 rpm): inhibited the growth rate, but did not kill the yeast
growth of X-PRESS yeast on nicotine-containing culture plate (X-PRESS yeast strain; nicotine 50 mg/ml, yeast extract 5 g/L, peptone 10 g/L, agar 15 g/L, 27° C., 3 days): No yeast growth could be observed
survival of X-PRESS yeast colonies (X-PRESS yeast strain; nicotine concentration of 7.5%): no surviving yeast colonies
